These results are taken from ChEMBL document CHEMBL4387785, “Discovery of a C-8 hydroxychromene as a potent degrader of estrogen receptor alpha with improved rat oral exposure over GDC-0927” (Bioorg Med Chem Lett, 2019).

In general, clearance refers to the rate of elimination divided by the concentration. As a reminder, the bioavailability is the share of a dose that reaches the circulation, judged against a reference dose that is usually intravenous. Lower therefore signals little systemic uptake. What is called Papp A→B is how fast a substance crosses the layer from the apical side. A high value points to fast passage.

The nature of series [1]: in vitro. Conditions: human, liver microsomes. (In general: Microsomes from liver hold many membrane-bound enzymes, among them those of drug oxidation.)
Series [2] in a line: in vitro. Conditions: rat, liver microsomes.
Series [3] can be described thus: in vitro. The settings on record: human, hepatocytes.
A short description of series [4]: in vitro. Conditions: rat, hepatocytes.
The nature of series [5]: Dose normalized AUC in rat at 5 mg/kg, po administered as suspension. Type of series: ADME, organism-based. Conditions: in vivo.
A short description of series [6]: in vivo. The settings on record: rat, iv, 1 mg/kg.
Series [7] can be described thus: in vivo. Conditions: rat, po, 5 mg/kg.
The nature of series [8]: in vitro. Conditions: dog, MDCK.
Series [9] in a line: Oral bioavailability in rat at 1 mg/kg administered as suspension. Format: ADME, organism-based. The settings on record: in vivo.
Series [10] in a line: Dose normalized AUC in rat at 1 mg/kg, po administered as suspension. Conditions: in vivo. Type of series: ADME, organism-based.

In the case of `CC1=C(c2ccc(F)cc2)[C@H](c2ccc(OCCN3CC(CF)C3)cc2)Oc2ccc(O)cc21`, the CLhep predicted in series [1] was 10 mL/min/kg; in series [2], 28 mL/min/kg; in series [3], 14 mL/min/kg; in series [4], 31 mL/min/kg.
In the case of `CC1=C(c2cccc(O)c2)[C@H](c2ccc(OCCN3CC(CF)C3)cc2)Oc2ccc(O)cc21`, the AUC/dose in series [5] came out at 0.04 µM·h. In series [6], this compound displayed a clearance of 100 mL/min/kg. This compound also had a bioavailability in [7] of 10%. The CLhep predicted in series [1] was 12 mL/min/kg; in series [2], 45 to 46 mL/min/kg; in series [3], 16 mL/min/kg; in series [4] it was 45 to 46 mL/min/kg. For the same compound, the Papp A→B in series [8] is 4.6 ×10⁻⁶ cm/s.
`CC1=C(c2cccc(O)c2)[C@H](c2ccc(OCCN3CC(CF)C3)cc2)Oc2c(O)cccc21` displayed a bioavailability in series [9] of 30%. Further, the AUC/dose in [10] is 0.43 µM·h. Also, in [6], the clearance stood at 18 mL/min/kg. Further, the CLhep predicted in [1] is 9 mL/min/kg; in series [2], 43 mL/min/kg; in series [3], 13 mL/min/kg; in series [4] it was 44 mL/min/kg. Moreover, the Papp A→B in [8] was determined as 2.4 ×10⁻⁶ cm/s.
In the case of `CC1=C(c2ccc(F)cc2)[C@H](c2ccc(OCCN3CC(CF)C3)cc2)Oc2c(O)cccc21`, the CLhep predicted was 9 mL/min/kg in series [1] and 27 mL/min/kg in series [2].
Regarding `CC1=C(c2ccc(F)cc2)[C@H](c2ccc(OCCN3CC(CF)C3)cc2)Oc2cc(F)c(O)cc21`, the CLhep predicted was 8 mL/min/kg in series [1], 20 mL/min/kg in [2], 15 mL/min/kg in series [3] and 28 mL/min/kg in series [4].
For `Oc1cccc(C2=Cc3cc(O)ccc3O[C@H]2c2ccc(OCCN3CC(CF)C3)cc2)c1`, the CLhep predicted is 12 mL/min/kg in series [1], 36 mL/min/kg in series [2], 17 mL/min/kg in series [3] and 41 mL/min/kg in series [4].
For `CCC1=C(c2cccc(O)c2)[C@H](c2ccc(OCCN3CC(CF)C3)cc2)Oc2ccc(O)cc21`, in that order: 12 mL/min/kg, 39 mL/min/kg, 15 mL/min/kg and 40 mL/min/kg.
